In the PolyMetriX glass transition set:
± gives the standard deviation of the reports.

*/C=C/c1ccc(*)c(-c2ccc(OCC(CC)CCCC)c3ccccc23)c1 (repeat unit)
glass transition temperature: 135.00 °C

*CC(*)C(=O)OCC1(CC)COCOC1 (repeat unit)
glass transition temperature: 42.00 °C

*C(=O)OCC(COc1ccc(/N=N/c2ccc(C#N)cc2)cc1)OC(=O)c1ncccc1* (repeat unit)
glass transition temperature: 130.00 °C

*c1ccc(Oc2ccc(-c3ccc(Oc4ccc(N5C(=O)c6ccc(Oc7ccccc7Oc7ccc8c(c7)C(=O)N(*)C8=O)cc6C5=O)cc4)cc3)cc2)cc1 (repeat unit)
glass transition temperature: 204.00 °C

*Nc1ccc(Cc2ccc(NC(=O)c3cc(C(*)=O)cc(N4C(=O)C5C6CCC(C6)C5C4=O)c3)cc2)cc1 (repeat unit)
glass transition temperature: 293.00 °C

*Oc1c(C)cc(C2(c3cc(C)c(OC(=O)c4cccc(C(*)=O)c4)c(C)c3)CCC3CCCCC3C2)cc1C (repeat unit)
glass transition temperature: 261.00 °C

*c1ccc(Oc2ccc(-c3nc4ccc(-c5ccc6nc(*)c(-c7ccccc7)nc6c5)cc4nc3-c3ccccc3)cc2)cc1 (repeat unit)
glass transition temperature: 306.00 °C

*Oc1c(Cl)cc(*)cc1Cl (repeat unit)
glass transition temperature: 176.82 °C

*/C=C/c1cc(OCCCCCCCCCCCC)c(*)cc1OC (repeat unit)
glass transition temperature: 36.00 °C

*Nc1cc(NC(=O)NC2CCC(CC3CCC(NC(*)=O)CC3)CC2)cc(C(=O)Nc2ccc3c(c2)C(=O)c2ccccc2C3=O)c1 (repeat unit)
glass transition temperature: 148.00 °C

*c1ccc(Oc2ccccc2Oc2ccc(N3C(=O)c4ccc(Oc5cc6ccccc6cc5Oc5ccc6c(c5)C(=O)N(*)C6=O)cc4C3=O)cc2)cc1 (repeat unit)
glass transition temperature: 204.00 °C

*O[Si](*)(C)CCCCCCOc1ccc(C(=O)Oc2ccc(OCCCCCC)cc2)cc1 (repeat unit)
glass transition temperature: 12.00 °C

*O[Si](c1ccccc1)(c1ccccc1)c1ccc(-c2ccc([Si](*)(c3ccccc3)c3ccccc3)cc2)cc1 (repeat unit)
glass transition temperature: 94.00 °C

*Oc1ccc(C(=O)NNC(=O)c2ccc(C(=O)NNC(=O)c3ccc(OC(=O)c4cccc(C(*)=O)c4)cc3)cc2Oc2ccccc2)cc1 (repeat unit)
glass transition temperature: 160.00 °C

*c1cccc(N2C(=O)c3ccc(Oc4ccccc4Oc4ccc5c(c4)C(=O)N(*)C5=O)cc3C2=O)c1 (repeat unit)
glass transition temperature: 224.00 °C

*Oc1ccc(C(=O)Nc2ccc(S(=O)(=O)c3ccc(NC(=O)c4ccc(Oc5ccc(C(=O)c6ccc(S(=O)(=O)c7ccc(C(=O)c8ccc(*)cc8)cc7)cc6)cc5)cc4)cc3)cc2)cc1 (repeat unit)
glass transition temperature: 260.00 °C

*CC(*)c1cccs1 (repeat unit)
glass transition temperature: 71.00 °C

*C(=O)N1C(=O)N(C(=O)c2ccc3c(c2)C(=O)N(c2ccc(Oc4ccc(N5C(=O)c6ccc(*)cc6C5=O)cc4)cc2)C3=O)C(CC)(CC)C1=O (repeat unit)
glass transition temperature: 160.00 °C

*Nc1ccc(C(c2ccc(NC(=O)c3cccc(C(*)=O)c3)cc2)(C(F)(F)F)C(F)(F)F)cc1 (repeat unit)
glass transition temperature: 272.00 °C

*C(=O)Nc1ccc(Cc2ccc(NC(=O)c3ccc4c(c3)C(=O)N(c3cccc(P(=O)(c5ccccc5)c5cccc(N6C(=O)c7ccc(*)cc7C6=O)c5)c3)C4=O)cc2)cc1 (repeat unit)
glass transition temperature: 233.00 °C

*CC(*)(C)C(=O)Oc1c(C(C)C)cccc1C(C)C (repeat unit)
glass transition temperature: 198.00 °C

*CCN(*)C(=O)CC12CC3CC(CC(C3)C1)C2 (repeat unit)
glass transition temperature: 139.00 °C

*c1ccc(Nc2ccc(C3(c4ccc(Nc5ccc(S(*)(=O)=O)cc5)cc4)c4ccccc4-c4ccccc43)cc2)cc1 (repeat unit)
glass transition temperature: 221.00 °C

*CC(*)c1cccc(Cl)c1 (repeat unit)
glass transition temperature: 90.00 °C

*CC(C)C(=O)N* (repeat unit)
glass transition temperature: 96.00 °C

*CCCCCCCC(=O)OCC1(C)COC(*)OC1 (repeat unit)
glass transition temperature: -26.00 °C

*c1cc(C)c(/N=C/c2ccc(OCc3ccccc3COc3ccc(/C=N/c4cc(C)c(N5C(=O)c6ccc7c8ccc9c%10c(ccc(c%11ccc(c6c7%11)C5=O)c%108)C(=O)N(*)C9=O)cc4C)cc3)cc2)cc1C (repeat unit)
glass transition temperature: 128.00 °C

*CCCCCCCCOC(=O)c1ccc2cc(C(=O)O*)ccc2c1 (repeat unit)
glass transition temperature: 60.00 °C

*c1ccc(Oc2ccc(Sc3ccc(Oc4ccc(N5C(=O)c6ccc(Oc7ccc(Sc8ccc(Oc9ccc%10c(c9)C(=O)N(*)C%10=O)cc8)cc7)cc6C5=O)cc4)cc3)cc2)cc1 (repeat unit)
glass transition temperature: 186.00 °C

*CC(*)(C)C(=O)OC(COc1cc2ccccc2c2ccccc12)COc1cc2ccccc2c2ccccc12 (repeat unit)
glass transition temperature: 112.00 °C

*Nc1cc(NC(=O)c2cc(OCCCS(=O)(=O)c3ccc(/N=N/c4ccc(N(C)C)cc4)cc3)cc(C(*)=O)c2)cc(C(=O)OCCCN(C)c2ccc(/N=N/c3ccc(S(C)(=O)=O)cc3)cc2)c1 (repeat unit)
glass transition temperature: 166.00 °C

*CCCCCCCCCCCC(=O)N* (repeat unit) [Poly(dodecano-12-lactam)]
glass transition temperature: 38.4 ± 3.2 °C

*c1ccc(OC(=O)c2ccc(C(=O)Oc3ccc(-c4nc5ccccc5nc4*)cc3)cc2)cc1 (repeat unit)
glass transition temperature: 232.00 °C

*CCCCCCCCOc1c(OC)cc(/C=C/c2ccc(/C=C/c3ccc(/C=C/c4cc(OC)c(O*)c(OC)c4)cc3)cc2)cc1OC (repeat unit)
glass transition temperature: 78.70 °C

*/C=C/C(C(=O)OCC)C(*)C(=O)OCC (repeat unit)
glass transition temperature: 6.00 °C

*CC(*)(C)C(=O)OCCCCCCOc1ccc(/C=N/c2ccc(C#N)cc2)cc1 (repeat unit)
glass transition temperature: 35.00 °C

*c1ccc(Cc2ccc(N3C(=O)c4ccc(S(=O)(=O)c5ccc6c(c5)C(=O)N(*)C6=O)cc4C3=O)c(C(C)(C)C)c2)cc1C(C)(C)C (repeat unit)
glass transition temperature: 336.00 °C

*/C(=C(\C#N)c1ccc(C(=O)OC2CCN(*)CC2)cc1)c1ccc(OC)cc1 (repeat unit)
glass transition temperature: 183.00 °C

*CC(*)(CCCCC)C(=O)OC (repeat unit)
glass transition temperature: 53.00 °C

*CCCCCCc1ccc(-c2c(-c3ccccc3)cc(-c3cccc(-c4cc(-c5ccccc5)c(-c5ccc(*)cc5)c(-c5ccccc5)c4-c4ccccc4)c3)c(-c3ccccc3)c2-c2ccccc2)cc1 (repeat unit)
glass transition temperature: 215.00 °C

*c1ccc2c(c1)C(=O)N(C1CCC(CC3CCC(N4C(=O)c5ccc(C(*)(C(F)(F)F)C(F)(F)F)cc5C4=O)CC3)CC1)C2=O (repeat unit)
glass transition temperature: 265.00 °C

*CCCCCCCCCCC(=O)Nc1ccc(Oc2ccc(NC(=O)CCCCCCCCCCN3C(=O)c4ccc(C(=O)c5ccc6c(c5)C(=O)N(*)C6=O)cc4C3=O)cc2)cc1 (repeat unit)
glass transition temperature: 132.00 °C

*c1ccc2c(c1)C(=O)N(c1cccc(C(=O)Nc3ccc(Oc4ccc(NC(=O)c5cccc(N6C(=O)c7ccc(C(*)(C(F)(F)F)C(F)(F)F)cc7C6=O)c5)cc4)cc3)c1)C2=O (repeat unit)
glass transition temperature: 298.00 °C

*CCOCCOc1cccc(NC(=O)c2ccc(C(=O)Nc3cccc(O*)c3)cc2)c1 (repeat unit)
glass transition temperature: 140.00 °C

*CC(*)(C)C(=O)OCCCCn1c2ccccc2c2cc(/N=N/c3ccc([N+](=O)[O-])cc3[N+](=O)[O-])ccc21 (repeat unit)
glass transition temperature: 132.00 °C

*CCCCCCCCCCC(=O)Nc1ccc(Oc2cccc(NC(=O)CCCCCCCCCCN3C(=O)c4ccc(C(=O)c5ccc6c(c5)C(=O)N(*)C6=O)cc4C3=O)c2)cc1 (repeat unit)
glass transition temperature: 126.00 °C

*C1CC2CC1C(*)C2CCCCCC (repeat unit)
glass transition temperature: 252.00 °C

*OC(=O)c1ccc(C(=O)OC2COC3C(*)COC23)cc1 (repeat unit)
glass transition temperature: 255.50 °C

*Nc1ccc(Cc2ccc(NC(=O)NCCCCCCCCCCCCCCCCCCNC(*)=O)cc2)cc1 (repeat unit)
glass transition temperature: 48.00 °C

*Oc1ccc(Oc2ccc(C(=O)c3ccc(*)cc3)cc2)cc1C (repeat unit)
glass transition temperature: 151.00 °C

*CC(COCC)O* (repeat unit)
glass transition temperature: -61.00 °C

*Oc1ccc(Oc2cccc(*)n2)c(C)c1 (repeat unit)
glass transition temperature: 89.00 °C

*c1ccc2c(c1)C(=O)N(c1ccc3c(c1)Cc1cc(N4C(=O)c5ccc(C(*)(C(F)(F)F)C(F)(F)F)cc5C4=O)ccc1-3)C2=O (repeat unit)
glass transition temperature: 394.00 °C

*c1ccc(C2C3C(=O)N(c4ccc(N5C(=O)C6ON(C)C(*)C6C5=O)cc4)C(=O)C3ON2C)cc1 (repeat unit)
glass transition temperature: 67.00 °C

*c1ccc(Oc2ccc(C(=O)c3ccc(Oc4ccc(N5C(=O)c6ccc(-c7ccc8c(c7)C(=O)N(*)C8=O)cc6C5=O)cc4)cc3)cc2)cc1 (repeat unit)
glass transition temperature: 253.00 °C

*c1ccc2c(c1)C(=O)N(c1ccc(Cc3ccc(N4C(=O)c5ccc(C(*)(C(F)(F)F)C(F)(F)F)cc5C4=O)cc3)cc1)C2=O (repeat unit)
glass transition temperature: 297.00 °C

*CCCCCCOC(=O)C(CCCCCBr)C(=O)OCCCCCCOc1ccc(-n2on2-c2ccc(O*)cc2)cc1 (repeat unit)
glass transition temperature: 7.00 °C

*N=P(N=P(N=S(*)(=O)Nc1ccccc1)(Nc1ccccc1)Nc1ccccc1)(Nc1ccccc1)Nc1ccccc1 (repeat unit)
glass transition temperature: 82.00 °C

*Oc1ccc(S(=O)(=O)c2ccc(Oc3ccc(C45CC6CC(CC(c7ccc(*)cc7)(C6)C4)C5)cc3)cc2)cc1 (repeat unit)
glass transition temperature: 242.00 °C

*CCCCCCCCCCCCOc1ccc(C(C)Cc2ccc(-c3ccc(O*)cc3)cc2)cc1 (repeat unit)
glass transition temperature: 40.00 °C

*Oc1ccc(OC(=O)c2ccc(C(*)=O)cc2)cc1C(F)(F)F (repeat unit)
glass transition temperature: 159.30 °C

*CC(F)(F)C(F)(F)C(F)(F)COC(=O)c1ccc(OCCCCC)c(C(=O)O*)c1 (repeat unit)
glass transition temperature: 9.00 °C

*CC(*)(C)C(=O)OCCCCOc1ccc(OC(=O)c2ccc(OCCCCCCCC)cc2)cc1 (repeat unit)
glass transition temperature: 10.00 °C

*c1ccc(-c2ccc(-c3cc(-c4ccc(-c5ccc(Oc6ccccc6)cc5)cc4)c4cc(-c5ccc6nc(*)cc(-c7ccc(-c8ccc(Oc9ccccc9)cc8)cc7)c6c5)ccc4n3)cc2)cc1 (repeat unit)
glass transition temperature: 374.00 °C
